Measurements: ChEMBL document CHEMBL3352799, “Arylazolyl(azinyl)thioacetanilides. Part 16: Structure-based bioisosterism design, synthesis and biological evaluation of novel pyrimidinylthioacetanilides as potent HIV-1 inhibitors” (Bioorg Med Chem, 2014)
pEC50, pIC50: −log10 of the molar value. Activity calls are given as the source filed them. The calls are words filed in the database; no cut-off is given here.

Tests used:
[1] = Selectivity index, ratio of CC50 for human MT4 cells to EC50 for HIV1 3B infected in human MT4 cells; assay type: toxicity, cell-based; conditions: read-out: Ratio CC50/EC50
[2] = tested on: Human immunodeficiency virus 1; assay: Antiviral activity against HIV1 3B infected in human MT4 cells assessed as reduction in virus-induced cytopathogenicity by MTT assay; assay type: functional, organism-based; conditions: Human immunodeficiency virus 1, 3B
[3] = tested on: Human immunodeficiency virus 1; assay: Antiviral activity against HIV1 RES056 expressing reverse transcriptase K103N/Y181C double mutant infected in human MT4 cells assessed as reduction in virus-induced cytopathogenicity by MTT assay; assay type: functional, organism-based; conditions: Human immunodeficiency virus 1, RES056, MT4
[4] = Selectivity index, ratio of CC50 for human MT4 cells to EC50 for HIV1 RES056 expressing reverse transcriptase K103N/Y181C double mutant infected in human MT4 cells; assay type: toxicity, cell-based; conditions: read-out: Ratio CC50/EC50
[5] = Cytotoxicity against human MT4 cells by MTT assay; assay type: cell-based
[6] = biological target: Human immunodeficiency virus type 1 reverse transcriptase (Human immunodeficiency virus 1, UniProt Q72547); assay: Inhibition of HIV1 reverse transcriptase assessed as inhibition of biotin-dUTP incorporation using hybrid poly (A).oligo (dT)15 template primer incubated for 1 hr at 37 degC by ELISA method
[7] = tested on: Human immunodeficiency virus 2; assay: Antiviral activity against HIV2 ROD infected in human MT4 cells assessed as reduction in virus-induced cytopathogenicity by MTT assay; assay type: functional, organism-based; conditions: ISOLATE ROD

Row | Compound | selectivity ratio [1] | pEC50 [2] | pEC50 [3] | selectivity ratio [4] | CC50 [5] [µM] | pIC50 [6] | inhibition [7]
1 | NS(=O)(=O)c1ccc(NC(=O)CSc2nncnc2-c2cccc3ccccc23)c(Br)c1 | 1290 |  |  |  |  |  | 
2 | CCOC(=O)CNC(=O)c1ccc(NC(=O)CSc2ncncc2-c2cccc3ccccc23)c(Cl)c1 | 684 | 6.82 | 4.51 | 3 | 105 | 5.88 | inactive
3 | COC(=O)c1ccc(NC(=O)CSc2ncncc2-c2cccc3ccccc23)c(Cl)c1 | 54 | 5.55 | < 3.81 | < 1 | 154 |  | inactive
4 | O=C(CSc1ncncc1-c1cccc2ccccc12)Nc1ccc(C(=O)NO)cc1Cl | 8 | 6.20 | < 5.32 | < 1 | 4.8 |  | inactive
5 | COc1ccc(Cn2cc(CSc3ncncc3-c3cccc4ccccc34)nn2)cc1 | < 1 | < 4.51 | < 4.51 | < 1 | 31.2 |  | inactive
6 | CONC(=O)c1ccc(NC(=O)CSc2ncncc2-c2cccc3ccccc23)c(Cl)c1 | 175 | 6.12 | < 3.88 | < 1 | 131 |  | inactive
7 | O=C(CSc1ncncc1-c1cccc2ccccc12)Nc1ccccc1[N+](=O)[O-] | 25 | 6.04 | < 4.65 | < 1 | 22.5 |  | inactive
8 | CCOC(=O)c1ccc(NC(=O)CSc2ncncc2-c2cccc3ccccc23)c(Cl)c1 | 43 | 5.34 | < 3.71 | < 1 | 195 |  | inactive
9 | COC(=O)c1ccc(NC(=O)CSc2ncncc2-c2cccc3ccccc23)c([N+](=O)[O-])c1 | ≥ 55 | 5.45 | < 3.71 | 1 | ≥ 196 |  | inactive
10 | O=C(CSc1nccnc1-c1ccccc1Cl)Nc1ccccc1[N+](=O)[O-] | 23 |  |  |  |  |  | 
11 | O=C(CSc1ncncc1-c1cccc2ccccc12)Nc1ccc(C(=O)O)cc1Cl | 13 | 5.09 | < 3.97 | < 1 | 108 |  | inactive
12 | CC(C)Nc1cccnc1N1CCN(C(=O)c2cc3cc(NS(C)(=O)=O)ccc3[nH]2)CC1 [DELAVIRDINE] | > 89 | 6.31 | < 4.36 | 1 | > 43.8 |  | 
13 | O=C(CSc1nnccc1-c1cccc2ccccc12)Nc1ccccc1[N+](=O)[O-] | 2150 |  |  |  |  |  | 
14 | O=C1Nc2ccc(Cl)cc2[C@@](C#CC2CC2)(C(F)(F)F)O1 [EFAVIRENZ] | > 1180 | 8.28 | 6.64 | > 27 | > 6.3 |  | 
15 | O=C(CSc1ncncc1-c1cccc2ccccc12)Nc1ccc(C(=O)O)nc1Cl | 5 | 4.62 | < 3.90 | < 1 | 127 |  | inactive
16 | Cc1ccnc2c1NC(=O)c1cccnc1N2C1CC1 [NEVIRAPINE] |  |  | < 4.84 |  | > 14.4 |  | 
17 | COC(=O)c1ccc(NC(=O)CSc2ncncc2-c2cccc3ccccc23)c(Br)c1 | 69 | 5.62 | < 3.78 | < 1 | 168 |  | inactive
18 | NS(=O)(=O)c1ccc(NC(=O)CSc2ncncc2-c2cccc3ccccc23)c(Br)c1 | 132 | 6.74 | 5.41 | 6 | 24.1 |  | inactive
19 | CCOC(=O)C(C)NC(=O)c1ccc(NC(=O)CSc2ncncc2-c2cccc3ccccc23)c(Cl)c1 (configuration not stated) | 13 | 5.56 | < 4.45 | < 1 | 35.6 |  | inactive
20 | CCOC(=O)c1ccc(NC(=O)CSc2ncncc2-c2cccc3ccccc23)c(Br)c1 | 47 | 5.35 | < 3.68 | < 1 | 211 |  | inactive
21 | Brc1ccccc1Cn1cc(CSc2ncncc2-c2cccc3ccccc23)nn1 | < 1 | < 4.40 | < 4.40 | < 1 | 39.4 |  | inactive
22 | O=C(O)c1ccc(-n2cc(CSc3ncncc3-c3cccc4ccccc34)nn2)cc1 | < 1 | < 4.02 | < 4.02 | < 1 | 95.9 |  | inactive
